PubChem BioAssay (NCI)
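How tested: cells in 96-well plates exposed to compound for 48 hours at five concentrations. Abbreviation: GI50, concentration required for 50% inhibition of growth. TGI: total growth inhibition.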

Experiments:
Experiment in all cases: growth of human tumour cells (NCI), 48 h
786-0 renal = system: 786-0 renal
A498 renal = system: A498 renal
A549 NSCLC = system: A549 NSCLC
ACHN renal = system: ACHN renal
BT-549 breast = system: BT-549 breast
CAKI-1 renal = system: CAKI-1 renal
CCRF-CEM leukemia = system: CCRF-CEM leukemia
COLO 205 colon = system: COLO 205 colon
DU-145 prostate = system: DU-145 prostate
EKVX NSCLC = system: EKVX NSCLC
HCC-2998 colon = system: HCC-2998 colon
HCT-116 colon = system: HCT-116 colon
HCT-15 colon = system: HCT-15 colon
HL-60(TB) leukemia = system: HL-60(TB) leukemia
HOP-62 NSCLC = system: HOP-62 NSCLC
HOP-92 NSCLC = system: HOP-92 NSCLC
HS 578T breast = system: HS 578T breast
HT29 colon = system: HT29 colon
K-562 leukemia = system: K-562 leukemia
KM12 colon = system: KM12 colon
LOX IMVI melanoma = system: LOX IMVI melanoma
M14 melanoma = system: M14 melanoma
MALME-3M melanoma = system: MALME-3M melanoma
MCF7 breast = system: MCF7 breast
MDA-MB-231 breast = system: MDA-MB-231 breast
MDA-MB-435 = system: MDA-MB-435
MOLT-4 leukemia = system: MOLT-4 leukemia
NCI-H226 lung = system: NCI-H226 lung
NCI-H23 lung = system: NCI-H23 lung
NCI-H460 lung = system: NCI-H460 lung
NCI-H522 lung = system: NCI-H522 lung
NCI/ADR-RES ovarian = system: NCI/ADR-RES ovarian
OVCAR-3 ovarian = system: OVCAR-3 ovarian
OVCAR-4 ovarian = system: OVCAR-4 ovarian
OVCAR-5 ovarian = system: OVCAR-5 ovarian
OVCAR-8 ovarian = system: OVCAR-8 ovarian
PC-3 prostate = system: PC-3 prostate
RPMI-8226 leukemia = system: RPMI-8226 leukemia
RXF 393 renal = system: RXF 393 renal
SF-268 CNS = system: SF-268 CNS
SF-539 CNS = system: SF-539 CNS
SK-MEL-2 melanoma = system: SK-MEL-2 melanoma
SK-MEL-28 melanoma = system: SK-MEL-28 melanoma
SK-MEL-5 melanoma = system: SK-MEL-5 melanoma
SK-OV-3 ovarian = system: SK-OV-3 ovarian
SN12C renal = system: SN12C renal
SNB-19 CNS = system: SNB-19 CNS
SNB-75 CNS = system: SNB-75 CNS
SR leukemia = system: SR leukemia
SW-620 colon = system: SW-620 colon
T-47D breast = system: T-47D breast
TK-10 renal = system: TK-10 renal
U251 CNS = system: U251 CNS
UACC-257 melanoma = system: UACC-257 melanoma
UACC-62 melanoma = system: UACC-62 melanoma
UO-31 renal = system: UO-31 renal

For `O=c1ncc(I)cn1C1CC(O)C(CO)O1` (stereo unspecified), the GI50 (786-0 renal) was 3100 µM, the TGI (786-0 renal) was > 3250 µM and the TGI (A498 renal) was > 3250 µM. For the same compound, the GI50 (A549 NSCLC) was 2460 µM, the TGI (A549 NSCLC) was > 3250 µM and the GI50 (ACHN renal) was 3120 µM. For the same compound, the TGI (ACHN renal) was > 3250 µM, the GI50 (BT-549 breast) was 1510 µM and the TGI (BT-549 breast) was > 3250 µM. The GI50 (CAKI-1 renal) was 1470 µM, the TGI (CAKI-1 renal) was > 3250 µM and the GI50 (CCRF-CEM leukemia) was 709 µM. The TGI (CCRF-CEM leukemia) was > 3250 µM, the GI50 (COLO 205 colon) was 1210 µM and the TGI (COLO 205 colon) was > 3250 µM. For the same compound, the GI50 (DU-145 prostate) was 1530 µM, the TGI (DU-145 prostate) was > 3250 µM and the GI50 (EKVX NSCLC) was > 3250 µM. For the same compound, the TGI (EKVX NSCLC) was > 3250 µM, the GI50 (HCC-2998 colon) was 2910 µM and the TGI (HCC-2998 colon) was > 3250 µM. For the same compound, the GI50 (HCT-116 colon) was 1310 µM, the TGI (HCT-116 colon) was > 3250 µM and the GI50 (HCT-15 colon) was 1680 µM. For the same compound, the TGI (HCT-15 colon) was > 3250 µM, the GI50 (HL-60(TB) leukemia) was 613 µM and the TGI (HL-60(TB) leukemia) was > 3250 µM. The GI50 (HOP-62 NSCLC) was 2940 µM, the TGI (HOP-62 NSCLC) was > 3250 µM and the GI50 (HOP-92 NSCLC) was > 3250 µM. The TGI (HOP-92 NSCLC) was > 3250 µM, the GI50 (HS 578T breast) was > 3250 µM and the TGI (HS 578T breast) was > 3250 µM. For the same compound, the GI50 (HT29 colon) was 1830 µM, the TGI (HT29 colon) was > 3250 µM and the GI50 (K-562 leukemia) was 1220 µM. The TGI (K-562 leukemia) was > 3250 µM, the GI50 (KM12 colon) was 1740 µM and the TGI (KM12 colon) was > 3250 µM. For the same compound, the GI50 (LOX IMVI melanoma) was 982 µM, the TGI (LOX IMVI melanoma) was > 3250 µM and the GI50 (M14 melanoma) was 1110 µM. For the same compound, the TGI (M14 melanoma) was > 3250 µM, the GI50 (MALME-3M melanoma) was > 3250 µM and the TGI (MALME-3M melanoma) was > 3250 µM. For the same compound, the GI50 (MCF7 breast) was 1430 µM, the TGI (MCF7 breast) was > 3250 µM and the GI50 (MDA-MB-231 breast) was > 3250 µM. The TGI (MDA-MB-231 breast) was > 3250 µM, the GI50 (MDA-MB-435) was 1020 µM and the TGI (MDA-MB-435) was > 3250 µM. The GI50 (MOLT-4 leukemia) was 1170 µM, the TGI (MOLT-4 leukemia) was > 3250 µM and the GI50 (NCI-H226 lung) was > 3250 µM. The TGI (NCI-H226 lung) was > 3250 µM, the GI50 (NCI-H23 lung) was 1620 µM and the TGI (NCI-H23 lung) was > 3250 µM. For the same compound, the GI50 (NCI-H460 lung) was 1540 µM, the TGI (NCI-H460 lung) was > 3250 µM and the GI50 (NCI-H522 lung) was 668 µM. For the same compound, the TGI (NCI-H522 lung) was 1250 µM, the GI50 (NCI/ADR-RES ovarian) was 1750 µM and the TGI (NCI/ADR-RES ovarian) was > 3250 µM. The GI50 (OVCAR-3 ovarian) was 1070 µM, the TGI (OVCAR-3 ovarian) was > 3250 µM and the GI50 (OVCAR-4 ovarian) was 1510 µM. The TGI (OVCAR-4 ovarian) was > 3250 µM, the GI50 (OVCAR-5 ovarian) was > 3250 µM and the TGI (OVCAR-5 ovarian) was > 3250 µM. The GI50 (OVCAR-8 ovarian) was 2610 µM, the TGI (OVCAR-8 ovarian) was > 3250 µM and the GI50 (PC-3 prostate) was > 3250 µM. The TGI (PC-3 prostate) was > 3250 µM, the GI50 (RPMI-8226 leukemia) was > 3250 µM and the TGI (RPMI-8226 leukemia) was > 3250 µM. The GI50 (RXF 393 renal) was > 3250 µM, the TGI (RXF 393 renal) was > 3250 µM and the GI50 (SF-268 CNS) was 2110 µM. For the same compound, the TGI (SF-268 CNS) was > 3250 µM, the GI50 (SF-539 CNS) was 2360 µM and the TGI (SF-539 CNS) was > 3250 µM. For the same compound, the GI50 (SK-MEL-2 melanoma) was > 3250 µM, the TGI (SK-MEL-2 melanoma) was > 3250 µM and the GI50 (SK-MEL-28 melanoma) was 3150 µM. For the same compound, the TGI (SK-MEL-28 melanoma) was > 3250 µM, the GI50 (SK-MEL-5 melanoma) was 2000 µM and the TGI (SK-MEL-5 melanoma) was > 3250 µM. The GI50 (SK-OV-3 ovarian) was 2100 µM, the TGI (SK-OV-3 ovarian) was > 3250 µM and the GI50 (SN12C renal) was 2710 µM. The TGI (SN12C renal) was > 3250 µM, the GI50 (SNB-19 CNS) was > 3250 µM and the TGI (SNB-19 CNS) was > 3250 µM. For the same compound, the GI50 (SNB-75 CNS) was > 3250 µM, the TGI (SNB-75 CNS) was > 3250 µM and the GI50 (SR leukemia) was 1170 µM. The TGI (SR leukemia) was > 3250 µM, the GI50 (SW-620 colon) was 1130 µM and the TGI (SW-620 colon) was > 3250 µM. The GI50 (T-47D breast) was 2220 µM, the TGI (T-47D breast) was > 3250 µM and the GI50 (TK-10 renal) was > 3250 µM. For the same compound, the TGI (TK-10 renal) was > 3250 µM, the GI50 (U251 CNS) was 1160 µM and the TGI (U251 CNS) was > 3250 µM. The GI50 (UACC-257 melanoma) was > 3250 µM, the TGI (UACC-257 melanoma) was > 3250 µM and the GI50 (UACC-62 melanoma) was 1480 µM. For the same compound, the TGI (UACC-62 melanoma) was > 3250 µM, the GI50 (UO-31 renal) was 711 µM and the TGI (UO-31 renal) was 1760 µM.
